Test system: BV-2 microglia
Test: Real-time PCR of C1q, IL-6 and TNFα in AβO-activated BV-2 microglia
Assay type: cell-based
Parameters: key to mRNA levels of C1q / mRNA levels of IL-6 / mRNA levels of TNFα: relative expression normalized to GAPDH by 2^-ΔΔCt; PBS = 1
Settings: for mRNA levels of IL-6 / mRNA levels of C1q / mRNA levels of TNFα: BV-2 microglia preincubated 1 h with inhibitor 1 μM, then AβO 5 μM 4 h, ±SD; for mRNA levels of IL-6: PBS = 1 ± 0.08, Abeta alone 12.53 ± 0.59; for mRNA levels of C1q: PBS = 1 ± 0.13, Abeta alone 3.7 ± 0.06; for mRNA levels of TNFα: PBS = 1 ± 0.16, Abeta alone 16.19 ± 3.21; for microglial activation / release of multiple inflammatory mediators including C1q, IL-6 and TNFα: inhibitor 1 μM pretreatment, AβO 5 μM, in words
Method: Synthetic Abeta1-42 oligomers were generated as previously described (PMID: 27834631). Hydroxyfluroisopropanol (HFIP)-treated synthethic Abeta1-42 peptides (rPeptide, Bogart, GA, USA) were dissolved in dimethylsulfoxide (DMSO) and further diluted in phosphate-buffered saline (PBS) to obtain a 250 μM stock solution. The stock solution was incubated at 4° C. for at least 24 hours and stored at −80° C. until use. Before use, the solution was centrifuged at 12,000 g for 10 minutes and the supernatant was used as an oligomeric Aβ.
BV-2 microglial cells were cultured in DMEM media. 10^6 of BV-2 microglia in 6 well plate were treated with 2.5 μM of Abeta for 4 hrs. Total RNA from cultured cells was extracted with a RNA isolation kit (Qiagen, Valencia, CA, USA) following manufacturer's instructions. RNA concentration was measured spectrophotometrically using a NanoDrop 2000 (Thermo scientific). Subsequently, 2 μg of total RNA was reverse transcribed to cDNA using the High-Capacity cDNA Reverse Transcription System (Life Technologies, Grand Island, NY, USA). Comparative qPCR was performed using fast SYBR Green Master Mix (Life Technologies) and steponeplus real-time pcr system (Applied Biosystems, Foster City, CA, USA). The expression levels of target genes were normalized to the expression of GAPDH and calculated based on the comparative cycle threshold Ct method^−ΔΔ(2) Ct. (n=3)
To examine the effect of RIPK2 inhibition, 10^6 of BV-2 microglia in 6 well plate were preincubated with DMSO, GSK583 (1 μM, Medchemexpress), OD361 (1 μM, Calbiochem), or Sorafenib (1 μM) for one hour. For mRNA analysis, 5 μM of AβO was treated additional for 4 hours.

| Structure (SMILES) | mRNA levels of IL-6 | mRNA levels of C1q | mRNA levels of TNFα | microglial activation | release of multiple inflammatory mediators including C1q, IL-6 and TNFα |
| --- | --- | --- | --- | --- | --- |
| Clc1cc2cc(c1)-c1cnn3c1NC(=NCCOCCO2)C=C3 [OD36, 6-Chloro-10,11,14,17-tetrahydro-13H-1,16-etheno-4,8-metheno-1H-pyrazolo[3,4-g][1,14,4,6]dioxadiazacyclohexadecine] | 7.64 ± 0.48 | 0.85 ± 0.12 | 5.85 ± 0.03 | blocked microglial activation | significantly reduced |
| CNC(=O)c1cc(Oc2ccc(NC(=O)Nc3ccc(Cl)c(C(F)(F)F)c3)cc2)ccn1 [Sorafenib] | 7.13 ± 0.71 | 3.3 ± 0.09 | 9.69 ± 0.47 | blocked microglial activation | significantly reduced |

— patent US20240398824A1, “Inhibition Of Rip Kinases For Treating Neurodegenerative Disorders” (The Johns Hopkins University, priority 2018, published 2024)
